According to PMC6315541, “Nile Tilapia Derived Antimicrobial Peptide TP4 Exerts Antineoplastic Activity Through Microtubule Disruption” (Marine Drugs, 2018):

Experiments:
[1] = tested on: Pure tubulins (microtubule polymerization); assay: In vitro tubulin polymerization assay; assay type: biochemical
Experimental: To test the models predicted by the molecular docking analysis, TP4 mutants were generated by substitution of Phe1, Ile16, and Arg23 with either Gly or Ala (mutant names and sequences are provided in Figure 5A), and the mutants were analyzed for their interaction with α-Tubulin. The sequence of TP4 is expected to form an α-helix, see Supplementary Figure S1A.
Figure 5 TP4 inhibits microtubule polymerization. (A) Sequences of the TP4 wild type (WT) and mutants. Letters shown in red indicate substituted amino acids. (B,C) Dynamic measurement of the microtubule polymerization. Pure tubulins were assembled in the presence of TP4 (WT), TP4 mutants (MT1-6). H2O, paclitaxel, and nocodazole served as vehicle, positive, and negative controls, respectively.
The Microtubule/Tubulin In Vivo Assay (Cytoskeleton, Inc., Denver, CO, USA) was performed using the “inhibitor condition” provided in the manufacturer’s instructions. Microtubule regrowth was assayed as described previously. Briefly, cells with or without 3 h, 10 μg mL^−1 TP4 treatment were incubated with nocodazole (20 μM) for 6 h at 37 °C. After washing with warm culture medium, cells were incubated for a further 0, 10, or 30 minutes. Fixed cells were stained with the α-Tubulin antibody and for F-actin. Confocal images were acquired on an FV3000 microscope (Olympus Corp., Tokyo, Japan).

[2] = tested on: α-Tubulin protein level in A549 cells; assay: Western blot of α-Tubulin protein level in A549 cells; assay type: cell-based, human; conditions: TP4 vs vehicle, Figure 2B
Experimental: To examine whether TP4 may affect microtubule dynamics, A549 cells were treated with TP4, and cytoskeletal elements were analyzed by immunocytochemistry (ICC). […] We then asked whether TP4 treatment may influence tubulin protein levels by performing Western blots on lysates from A549 cells that had been treated with vehicle or TP4. […] We next conducted a microtubule regrowth assay to further address whether TP4 may disrupt microtubule polymerization. TP4 was applied to A549 cells that had been treated with or without Nocodazole (20 μM) treatment for 6 h, which completely depolymerizes the microtubule network. The repolymerization of microtubules was then initialized by the addition of fresh recovery medium, and regrowth was analyzed by ICC.
Figure 2 TP4 disrupts the microtubule network in cancer cells. (A) Cells were stained for α-Tubulin and F-actin. Hoechst33342 was used to stain nuclei. Arrows indicate cells with negative α-Tubulin staining. Bar: 20 μm. (B) Total lysates from cells with mock (labeled C) or TP4 treatment (labeled T) were analyzed by Western blot using antibodies against GAPDH and α-Tubulin. Quantification of the α-Tubulin signal normalized to GAPDH is shown. Mr is the molecular weight. […] Bar: 20 μm (D) Quantification of the number of cells with Tubulin-positive and Tubulin-negative staining. […]

Sequence: FIHHIIGGLFSAGKAIHRLIRRRRR [TP4, synthesized Nile tilapia-derived antimicrobial peptide, Tilapia piscidin 4]
- effect on microtubule polymerization ([1]; 10 μg mL^−1 peptide, dynamic measurement, Figure 5B): sufficient to disrupt microtubule polymerization
- effect on microtubule polymerization ([1]; 20 μg mL^−1 peptide, compared to controls, Figure 5C): completely inhibited microtubule polymerization
- level of α-Tubulin protein (normalized to GAPDH) [2]: not significantly affected
